Results from patent publication US4244946A, “Water-soluble peptides affecting gonadal function” (The Salk Institute for Biological Studies, priority 1979, dated 1981).

Tests used:
[1] = tested on: dispersed rat pituitary cells; assay: LH secretion by four-day-old primary culture of dispersed rat pituitary cells over 4 hours, radioimmunoassay for rat LH; format: cell-based; conditions: Table II, 4-hour period
[2] = tested on: dispersed rat pituitary cells; assay: as above; format: cell-based; conditions: for NANOGRAMS OF LH SECRETED: Table I, 4-hour period; for relative potency, compared to LRF: in vitro LH release, confidence limits in parentheses
Description: The peptides prepared in the foregoing Example I are assayed in vitro using a four-day-old primary culture of dispersed rat pituitary cells and compared with LRF. The levels of LH secreted over a 4-hour period in response to the application of peptides are assayed by specific radioimmunoassay for rat LH. The results of testing are expressed in Table I herebelow: […]

[3] = in vivo test of agonistic potency compared with LRF
Description: The effectiveness of the peptide compositions prepared in Examples I and II is also tested in vivo, and the relative agonistic potencies of peptides determined in the in vitro assays reported above correlate well with the potencies obtained from in vivo tests.

Row | Compound | NANOGRAMS OF LH SECRETED ([1]; 0.3 nM peptide) [nanograms] | NANOGRAMS OF LH SECRETED ([1]; 1.0 nM peptide) [nanograms] | NANOGRAMS OF LH SECRETED ([1]; 3.0 nM peptide) [nanograms] | NANOGRAMS OF LH SECRETED ([2]; 0.1 nM peptide) [nanograms] | NANOGRAMS OF LH SECRETED ([2]; 0.3 nM peptide) [nanograms] | NANOGRAMS OF LH SECRETED ([2]; 1.0 nM peptide) [nanograms] | NANOGRAMS OF LH SECRETED ([2]; 3.0 nM peptide) [nanograms] | NANOGRAMS OF LH SECRETED ([1]; 0.003 nM peptide) [nanograms] | NANOGRAMS OF LH SECRETED ([1]; 0.01 nM peptide) [nanograms] | NANOGRAMS OF LH SECRETED ([1]; 0.03 nM peptide) [nanograms] | potency compared with LRF when tested in vivo [3] | relative potency, compared to LRF [2] | relative potency, compared to LRF ([2]; Pro^9 -NEt]-LRF) | NANOGRAMS OF LH SECRETED ([2]; 0.003 nM peptide) [nanograms] | NANOGRAMS OF LH SECRETED ([2]; 0.01 nM peptide) [nanograms] | NANOGRAMS OF LH SECRETED ([2]; 0.03 nM peptide) [nanograms] | relative potency, compared to LRF ([2]; listed as [D-His^6 (im-Bzl)]-LRF)
1 | CC(C)C[C@H](NC(=O)CNC(=O)[C@H](Cc1ccc(O)cc1)NC(=O)[C@H](CO)NC(=O)[C@H](Cc1c[nH]c2ccccc12)NC(=O)[C@H](Cc1c[nH]cn1)NC(=O)[C@@H]1CCC(=O)N1)C(=O)N[C@@H](CCCNC(=N)N)C(=O)N1CCC[C@H]1C(=O)NCC(N)=O [LRF, p-Glu-His-Trp-Ser-Tyr-Gly-Leu-Arg-Pro-Gly-NH2, reference compound] | 631 | 1001 | 1496 | 1255 | 1767 | 2167 | 2867 | – | – | – | – | – | – | – | – | – | –
2 | [D-His^6 (im-Bzl), Pro^9 -NEt]-LRF [Example II] | – | – | – | – | – | – | – | 895 | 1256 | 2008 | very significantly more potent than LRF | 217(57-952) times that of LRF | more than 200 times that of LRF | – | – | – | –
3 | p-Glu-His-Trp-Ser-Tyr-D-His(im-Bzl)-Leu-Arg-Pro-Gly-NH2 [Example I] | – | – | – | 2225 | 2667 | – | – | – | – | – | very significantly more potent than LRF | 12(5.8-24) times that of LRF | – | 885 | 1345 | 2150 | about 12 times that of LRF
